Results from patent US20090137844A1, “Crystallization process” (Fermion Oy, priority 2005, published 2009).
Where a name gives a salt, the structure may show the parent alone. Each block holds one compound with its values, some of them ahead of it.

Tests used:
Assay type in all cases: physicochemical
[1] = Crystal particle size by light microscope (visually observed); conditions: for Size of particle (light microscope), 90% of crystals below: procedure of Example 1
Experimental: Particle size distribution is analyzed visually using light microscope or by laser diffraction using the following method: In table 1 below there are the results of experiments using different addition temperatures. Procedure is the same as above.

[2] = Volumetric particle size distribution by laser diffraction (Coulter LS230); conditions: for Particle size distribution (laser diffraction) LDP 10 / Particle size distribution (laser diffraction) LDP 50 / Particle size distribution (laser diffraction) LDP 90: procedure of Example 1
Experimental: Particle size distribution is analyzed visually using light microscope or by laser diffraction using the following method: Saturated 2-Propanol: To 250 ml of 2-propanol is added approx 1 g of tamsulosin HCl powder and sonicated at room temperature about 30 min. The mixture is let stand overnight, hereafter it is filtered through […] membrane filter. Sample Preparation About 30 mg of tamsulosin HCl is weighed in a 25 ml decanter. 2-4 drops of saturated 2-propanol is added to the sample and stirred with a glass rod. After that 4 ml of saturated 2-propanol is added and the sample is kept in ultra sound for 30 seconds before measuring volumetric particle size distribution using Coulter LS230, Laser Diffraction Particle Size Analyzer.

[3] = Solubility in alcoholic solvents
[4] = Example 2: 15% HCl added at 40° C., cooled to 20° C.
[5] = Example 3: Example 2 repeated, HCl addition temperature 20° C.

Size of particle (light microscope), 90% of crystals below ([1]; HCl added at 0° C.): 90% < 3 μm
Size of particle (light microscope), 90% of crystals below ([1]; HCl added at 10° C.): 90% < 5 μm
Size of particle (light microscope), 90% of crystals below ([1]; HCl added at 20° C.): 90% < 10 μm
Size of particle (light microscope), 90% of crystals below ([1]; HCl added at 30° C.): 90% < 15 μm
Size of particle (light microscope), 90% of crystals below ([1]; HCl added at 40° C.): 90% < 30 μm
Size of particle (light microscope), 90% of crystals below ([1]; HCl added at 80° C.): 90% < 250 μm
Size below which 90% of the crystals are (light microscope) ([1]; hydrochloride added at e.g. 80° C.): below 250 micrometers
Size below which 90% of the crystals are (light microscope) ([1]; hydrochloride added below about 30° C.): below 15 micrometers
Crystal size distribution (laser diffraction) LDP 10 [2, 4]: 5 μm
Crystal size distribution (laser diffraction) LDP 50 [2, 4]: 20 μm
Crystal size distribution (laser diffraction) LDP 90 [2, 4]: 36 μm
Crystal size distribution (laser diffraction) LDP 10 [2, 5]: 3 μm
Crystal size distribution (laser diffraction) LDP 50 [2, 5]: 14 μm
Crystal size distribution (laser diffraction) LDP 90 [2, 5]: 29 μm
Particle size distribution (laser diffraction) LDP 10 ([2]; HCl added at 0° C.): LDP 10 = 1 μm
Particle size distribution (laser diffraction) LDP 50 ([2]; HCl added at 0° C.): LDP 50 = 3 μm
Particle size distribution (laser diffraction) LDP 90 ([2]; HCl added at 0° C.): LDP 90 = 12 μm
Particle size distribution (laser diffraction) LDP 10 ([2]; HCl added at 10° C.): LDP 10 = 1 μm
Particle size distribution (laser diffraction) LDP 50 ([2]; HCl added at 10° C.): LDP 50 = 5 μm
Particle size distribution (laser diffraction) LDP 90 ([2]; HCl added at 10° C.): LDP 90 = 10 μm
Particle size distribution (laser diffraction) LDP 10 ([2]; HCl added at 20° C.): LDP 10 = 2 μm
Particle size distribution (laser diffraction) LDP 50 ([2]; HCl added at 20° C.): LDP 50 = 7 μm
Particle size distribution (laser diffraction) LDP 90 ([2]; HCl added at 20° C.): LDP 90 = 17 μm
Particle size distribution (laser diffraction) LDP 10 ([2]; HCl added at 30° C.): LDP 10 = 4 μm
Particle size distribution (laser diffraction) LDP 50 ([2]; HCl added at 30° C.): LDP 50 = 15 μm
Particle size distribution (laser diffraction) LDP 90 ([2]; HCl added at 30° C.): LDP 90 = 29 μm
Particle size distribution (laser diffraction) LDP 10 ([2]; HCl added at 40° C.): LDP 10 = 9 μm
Particle size distribution (laser diffraction) LDP 50 ([2]; HCl added at 40° C.): LDP 50 = 29 μm
Particle size distribution (laser diffraction) LDP 90 ([2]; HCl added at 40° C.): LDP 90 = 55 μm
Size below which 90% of the crystals are (laser diffraction) ([2]; addition temperature about 20° C.): below 20 micrometers
Size below which 90% of the crystals are (laser diffraction) ([2]; addition temperature about 40° C.): below 60 micrometers
SMILES: CCOc1ccccc1OCCNC(C)Cc1ccc(OC)c(S(N)(=O)=O)c1 (centres unmarked) [tamsulosin hydrochloride, 5-[2-[[2-(2-ethoxyphenoxy)ethyl]amino]propyl]-2-methoxybenzene-sulfonamide]

Solubility [3]: poorly soluble
SMILES: CCOc1ccccc1OCCNC(C)Cc1ccc(OC)c(S(N)(=O)=O)c1 (centres unmarked) [tamsulosin, 5-[2-[[2-(2-ethoxyphenoxy)ethyl]amino]propyl]-2-methoxybenzene-sulfonamide]
